Columns and labels:
[1] = test system: small cell lung cancer (SCLC), colon, breast and acute lymphoblastic leukemia (ALL) cancer xenografts; details: cited from earlier work
[2] = stability of APG-1252 during formulation preparation and lyophilization process (HPLC); assay type: physicochemical; details: final lyophilization product compared to original drug
Protocol: The contents of APG-1252 and its hydrolysis product BM-1244 were measured before and after formulation preparation and lyophilization process by method described above.

[3] = test system: mantle cell lymphoma (B cell non-Hodgkin's lymphoma) cell line Mino, and Z138 and Rec; assay: cytotoxicity, CellTiter96 AQueous cell proliferation assay; assay type: cell-based; details: single drug, 72 h
Protocol: (§1) Cells were seeded in a 96 well plate with 3000 cells per well and culture for 24 h, the appropriate amount of drug in a serial dilution manner was added to each well. After incubation for 72 h, Cell Proliferation was detected by CellTiter96™ AQueous Nonradioactive Cell Proliferation Assay Kit.

[4] = test system: erythroleukemic HEL, megakaryoblastic leukemic SET-2 and Ruxolitinib resistant HEL cell line; assay: as above; assay type: cell-based; details: single drug, 72 h, HEL and SET-2 cell lines
Protocol: as §1

[5] = tissue distribution of APG-1252 and BMS-1244 (FIG. 15); assay type: in vivo, CD-1 IGS mice; details: for 48 hours
Source text: The APG-1252 and BMS-1244 concentration versus time curve in different tissues in CD-1 IGS mice.

Structure (SMILES)	combination with chemotherapeutic agents ([1]; in vivo)	tumor regression as single agent ([1]; twice weekly or weekly dose-schedule)	percentage of BM-1244 [2] [%]	cytotoxicity alone [3]	cytotoxicity alone [4]	BMS-1244 relative to APG-1252 [5]
Cc1c(S(C)(=O)=O)c(-c2cc(F)cc(N3CCN(c4ccc(NS(=O)(=O)c5ccc(N[C@H](CCN6CCC(C(=O)OCCCP(=O)(O)O)CC6)CSc6ccccc6)c(S(=O)(=O)C(F)(F)F)c5)cc4)CC3)c2)c(-c2ccc(Cl)cc2)n1C(C)C [APG-1252, (R)-(3-((1-(3-((4-(N-(4-(4-(3-(2-(4-chlorophenyl)-1-isopropyl-5-methyl-4-(methylsulfonyl)-1H-pyrrol-3-yl)-5-fluorophenyl)piperazin-1-yl)phenyl)sulfamoyl)-2-((trifluoromethyl)sulfonyl)phenyl)amino)-4-(phenylthio)butyl)piperidine-4-carbonyl)oxy)propyl)phosphonic acid]	strong synergy with the chemotherapeutic agents	complete and persistent tumor regression	0.16	similar	similar	–
Cc1c(S(C)(=O)=O)c(-c2cc(F)cc(N3CCN(c4ccc(NS(=O)(=O)c5ccc(N[C@H](CCN6CCC(C(=O)O)CC6)CSc6ccccc6)c(S(=O)(=O)C(F)(F)F)c5)cc4)CC3)c2)c(-c2ccc(Cl)cc2)n1C(C)C [BM-1244, (R)-1-(3-((4-(N-(4-(4-(3-(2-(4-chlorophenyl)-1-isopropyl-5-methyl-4-(methylsulfonyl)-1H-pyrrol-3-yl)-5-fluorophenyl)piperazin-1-yl)phenyl)sulfamoyl)-2-((trifluoromethyl)sulfonyl)phenyl)amino)-4-(phenylthio)butyl)piperidine-4-carboxylic acid]	–	–	–	–	–	less than 10%

Source: patent US20230025865A1, “COMPOSITIONS AND METHODS FOR […] […] OF Bcl-2 AND Bcl-xL ANTAGONISTS” (The Regents of the University of Michigan, priority 2019, published 2023)
